Legend:
[1] = system: Bemisia tabaci; assay: Test Example 2: spray test against Bemisia tabaci instar larvae on tomato seedling; format: in vivo; conditions: 168 h, 500 ppm active ingredient, formulation of Formulation Example 5 diluted with water, 10 ml/cup sprayed on tomato seedling, greenhouse at 25° C., after 7 days
Protocol: On the other hand, Bemisia tabaci adult was released on a tomato seeding (the third true leaf stage) planted in a polyethylene cup, and made to lay eggs for about 24 hours. The tomato seedling was kept in a greenhouse for 8 days. When instar larvae hatched from the eggs, the above test spray solution was sprayed in the amount of 10 ml/cup. The cup was kept in a greenhouse at 25° C. After the keeping for 7 days, the number of surviving instar larvae on the tomato leaves was examined, and a control value was calculated according to the following equation: Control value(%)={1−(Cb×Tai)/(Cai×Tb))×100 wherein symbols represent as follows: Cb: the number of pests in a non-treated section before treatment, Cai: the number of pests in a non-treated section in observation, Tb: the number of pests in a treated-section before treatment, Tai: the number of pests in a treated-section in observation.

[2] = system: Aphis gossypii; assay: Test Example 1: spray test against Aphis gossypii on cucumber seedling; format: in vivo; conditions: 144 h, 500 ppm active ingredient, formulation of Formulation Example 5 diluted with water, 20 ml sprayed on cucumber seedling, six days after spraying
Protocol: On the other hand, about 30 Aphis gossypii were incubated on a cucumber seeding (the first true leaf stage) planted in a plastic cup, and leaving it for a day. 20 ml of each of the above test spray solutions was sprayed on this seeding. Six days after spraying, the number of the surviving Aphis gossypii parasitized on the leaves of the cucumber was examined, and a control value was calculated according to the following equation: Control value(%)={1−(Cb×Tai)/(Cai×Tb))×100 wherein symbols represent as follows: Cb: the number of insects in a non-treated section before treatment, Cai: the number of insects in a non-treated section in observation, Tb: the number of insects in a treated-section before treatment, Tai: the number of insects in a treated-section in observation.

Compound: CCSc1cncnc1-c1nc2cc(C(F)(F)F)ccc2n1C [Compound 7, 2-(5-ethylthiopyrimidin-4-yl)-1-methyl-5-trifluoromethyl-1H-benzimidazole]
- pest or weed control at 500 ppm [1]: ≥ 90%
- pest or weed control at 500 ppm [2]: ≥ 90%

Compound: Cn1c(-c2ccncn2)nc2cc(C(F)(F)F)ccc21 [Compound 2]
- pest or weed control at 500 ppm [1]: ≥ 90%
- pest or weed control at 500 ppm [2]: ≥ 90%

Compound: Cn1c(-c2ncncc2Cl)nc2cc(C(F)(F)F)cnc21 [Compound 13]
- pest or weed control at 500 ppm [1]: ≥ 90%
- pest or weed control at 500 ppm [2]: ≥ 90%

Compound: CCSc1cncnc1-c1nc2cc(C(F)(F)F)cnc2n1C [Compound 4]
- pest or weed control at 500 ppm [1]: ≥ 90%
- pest or weed control at 500 ppm [2]: ≥ 90%

Compound: CCS(=O)(=O)c1cncnc1-c1nc2cc(C(F)(F)F)cnc2n1C [Compound 6]
- pest or weed control at 500 ppm [1]: ≥ 90%
- pest or weed control at 500 ppm [2]: ≥ 90%

Compound: CCS(=O)(=O)c1cncnc1-c1nc2cc(C(F)(F)F)ccc2n1C [Compound 9]
- pest or weed control at 500 ppm [1]: ≥ 90%
- pest or weed control at 500 ppm [2]: ≥ 90%

Compound: CCc1cncnc1-c1nc2cc(C(F)(F)F)ccc2o1 [Compound 10]
- pest or weed control at 500 ppm [1]: ≥ 90%
- pest or weed control at 500 ppm [2]: ≥ 90%

Compound: CC[S+]([O-])c1cncnc1-c1nc2cc(C(F)(F)F)cnc2n1C (stereo not shown) [Compound 5]
- pest or weed control at 500 ppm [1]: ≥ 90%
- pest or weed control at 500 ppm [2]: ≥ 90%

Compound: CCc1cncnc1-c1nc2cc(C(F)(F)F)cnc2o1 [Compound 15]
- pest or weed control at 500 ppm [1]: ≥ 90%
- pest or weed control at 500 ppm [2]: ≥ 90%

Compound: Cn1c(-c2ncncc2OCC(F)(F)F)nc2cc(C(F)(F)F)cnc21 [Compound 3]
- pest or weed control at 500 ppm [1]: ≥ 90%
- pest or weed control at 500 ppm [2]: ≥ 90%

Compound: CC[S+]([O-])c1cncnc1-c1nc2cc(C(F)(F)F)ccc2n1C (stereo not shown) [Compound 8]
- pest or weed control at 500 ppm [1]: ≥ 90%
- pest or weed control at 500 ppm [2]: ≥ 90%

Source: patent US9089136B2, “Pyrimidine compound and use thereof for pest control” (Sumitomo Chemical Company, Limited, priority 2010, dated 2015)
